The results in this text go back to patent publication US9174952B2, “Substituted 3-thiazoloamino-propionic acid derivatives and their use as pharmaceuticals” (SANOFI, priority 2011, dated 2015).

The test has as its target T1, Recombinant human cathepsin A (Homo sapiens, UniProt P10619).
T1 construct: Recombinant human cathepsin A (residues 29-480, with a C-terminal 10-His tag); 10-His (C); purchased R&D Systems 1049-SE
T1 sequence (P10619 29-326 limits assumed): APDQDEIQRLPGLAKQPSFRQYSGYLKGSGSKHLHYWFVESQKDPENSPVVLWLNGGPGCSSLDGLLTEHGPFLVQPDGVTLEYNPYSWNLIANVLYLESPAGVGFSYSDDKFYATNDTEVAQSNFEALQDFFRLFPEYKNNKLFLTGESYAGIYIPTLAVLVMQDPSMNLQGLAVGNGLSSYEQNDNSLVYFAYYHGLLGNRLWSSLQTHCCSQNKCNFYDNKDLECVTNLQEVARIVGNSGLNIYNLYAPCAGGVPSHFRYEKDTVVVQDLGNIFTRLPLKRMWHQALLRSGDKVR
T1 sequence (P10619 327-480 limits assumed): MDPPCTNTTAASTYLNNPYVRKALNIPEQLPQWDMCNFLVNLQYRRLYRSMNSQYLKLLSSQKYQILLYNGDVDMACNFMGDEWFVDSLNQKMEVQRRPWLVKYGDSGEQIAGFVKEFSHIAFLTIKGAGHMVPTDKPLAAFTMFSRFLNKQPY
The test is described as follows: Cathepsin A inhibitory activity. Conditions: activated recombinant human cathepsin A 833 ng/ml, Bodipy FL-labeled bradykinin substrate 2 μM, pH 5.5, room temperature. It is filed as biochemical. An outline of the steps:
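Enzyme (residues 29-480, C-terminal His tag) pre-activated by cathepsin L at 37° C, then quenched with E-64. Compound preincubated 15 min at room temperature in 25 mM MES pH 5.5 with 5 mM DTT, then 2 μM Bodipy FL-bradykinin added for 15 min at 833 ng/ml enzyme. Product/substrate separated by microfluidic capillary electrophoresis; IC50 from multi-concentration inhibition.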
Turning to `O=C(O)C[C@H](NC(=O)c1csc(-c2ccccc2F)n1)c1ccccc1Cl` [Example 30, (S)-3-(2-Chloro-phenyl)-3-{[2-(2-fluoro-phenyl)-thiazole-4-carbonyl]-amino}-propionic acid], the IC50 – broadly, the concentration that gives 50% inhibition – is 0.377 µM. The same measure for `O=C(O)CC(NC(=O)c1csc(-c2ccccc2F)n1)C1CCCCC1` (stereo not shown) [Example 131, 3-Cyclohexyl-3-{[2-(2-fluoro-phenyl)-thiazole-4-carbonyl]-amino}-propionic acid]: 1.43 µM; for `Cc1ccccc1[C@H](CC(=O)O)NC(=O)c1csc(-c2ccncc2)n1` [Example 7, (S)-3-[(2-Pyridin-4-yl-thiazole-4-carbonyl)-amino]-3-o-tolyl-propionic acid]: 0.805 µM; for `O=C(O)CC(NC(=O)c1csc(-c2ccc(C(F)(F)F)cc2)n1)C1CCCCC1` (stereo not shown) [Example 132, 3-Cyclohexyl-3-{[2-(4-trifluoromethyl-phenyl)-thiazole-4-carbonyl]-amino}-propionic acid]: 11.2 µM. With `Cc1ccccc1-c1nc(C(=O)N[C@@H](CC(=O)O)c2cccc(F)c2)cs1` [Example 47, (S)-3-(3-Fluoro-phenyl)-3-[(2-o-tolyl-thiazole-4-carbonyl)-amino]-propionic acid], the half-inhibitory concentration (IC50) is 0.28 µM. To `O=C(O)CC(Cc1ccccc1)NC(=O)c1csc(-c2ccc(Cl)cc2)n1` (stereo not shown) [Example 127, 3-{[2-(4-Chloro-phenyl)-thiazole-4-carbonyl]-amino}-4-phenyl-butyric acid] belongs 12.6 µM; to `Cc1cc(C(F)(F)F)n(-c2nc(C(=O)N[C@@H](CC(=O)O)c3ccccc3C)cs2)n1` [Example 9, (S)-3-{[2-(3-Methyl-5-trifluoromethyl-pyrazol-1-yl)-thiazole-4-carbonyl]-amino}-3-o-tolyl-propionic acid], 3.59 µM. `COc1cccc([C@H](CC(=O)O)NC(=O)c2csc(-c3ccc(Cl)cc3)n2)c1` [Example 106, (S)-3-{[2-(4-Chloro-phenyl)-thiazole-4-carbonyl]-amino}-3-(3-methoxy-phenyl)-propionic acid]: the IC50 is 17.3 µM. The same measure for `O=C(O)C[C@H](NC(=O)c1csc(-c2ccc(C(F)(F)F)cc2)n1)c1ccccc1C(F)(F)F` [Example 38, (S)-3-(2-Trifluoromethyl-phenyl)-3-{[2-(4-trifluoromethyl-phenyl)-thiazole-4-carbonyl]-amino}-propionic acid]: 23.3 µM; for `O=C(O)C[C@H](NC(=O)c1csc(-c2ccccc2Cl)n1)c1ccccc1` [Example 83, (S)-3-{[2-(2-Chloro-phenyl)-thiazole-4-carbonyl]-amino}-3-phenyl-propionic acid]: 0.186 µM. `Cc1ccccc1[C@H](CC(=O)O)NC(=O)c1csc(-c2cnccn2)n1` [Example 8, (S)-3-[(2-Pyrazin-2-yl-thiazole-4-carbonyl)-amino]-3-o-tolyl-propionic acid]: the concentration for half-maximal inhibition (IC50) was determined as 2.63 µM. For the molecule `O=C(O)C[C@H](NC(=O)c1csc(-c2ccc(Cl)cc2)n1)c1cccc(Cl)c1Cl` [Example 100, (S)-3-{[2-(4-Chloro-phenyl)-thiazole-4-carbonyl]-amino}-3-(2,3-dichloro-phenyl)-propionic acid], the half-maximal inhibitory concentration (IC50) came out at 0.686 µM. The same measure for `O=C(O)C[C@H](NC(=O)c1csc(-c2ccccc2)n1)c1ccccc1Cl` [Example 27, (S)-3-(2-Chloro-phenyl)-3-[(2-phenyl-thiazole-4-carbonyl)-amino]-propionic acid]: 0.217 µM; for `O=C(O)C[C@H](NC(=O)c1csc(-c2cccc(Cl)c2)n1)c1cccc(Cl)c1Cl` [Example 89, (S)-3-{[2-(3-Chloro-phenyl)-thiazole-4-carbonyl]-amino}-3-(2,3-dichloro-phenyl)-propionic acid]: 1.02 µM. The same measure for `COc1ccc([C@H](CC(=O)O)NC(=O)c2csc(-c3ccc(Cl)cc3)n2)cc1` [Example 108, (S)-3-{[2-(4-Chloro-phenyl)-thiazole-4-carbonyl]-amino}-3-(4-methoxy-phenyl)-propionic acid]: 3.4 µM. For `O=C(O)C[C@H](NC(=O)c1csc(-c2ccc(C(F)(F)F)cc2)n1)c1cccc(Cl)c1` [Example 46, (S)-3-(3-Chloro-phenyl)-3-{[2-(4-trifluoromethyl-phenyl)-thiazole-4-carbonyl]-amino}-propionic acid], the concentration for half-maximal inhibition (IC50) stood at 10.5 µM. The same measure for `Cc1ccccc1-c1nc(C(=O)N[C@@H](CC(=O)O)c2ccccc2Cl)cs1` [Example 26, (S)-3-(2-Chloro-phenyl)-3-[(2-o-tolyl-thiazole-4-carbonyl)-amino]-propionic acid]: 0.149 µM; for `Cc1ccccc1[C@H](CC(=O)O)NC(=O)c1csc(-c2ccccc2Cl)n1` [Example 82, (S)-3-{[2-(2-Chloro-phenyl)-thiazole-4-carbonyl]-amino}-3-o-tolyl-propionic acid]: 0.03 µM; for `Cc1ccccc1-c1nc(C(=O)NC(CC(=O)O)C2CCCCC2)cs1` (stereo not shown) [Example 128, 3-Cyclohexyl-3-[(2-o-tolyl-thiazole-4-carbonyl)-amino]-propionic acid]: 0.81 µM.

As to `O=C(N[C@H](C(=O)O)C1CCCCC1)c1csc(-c2cccc(Cl)c2)n1` [Example 57, (S)-{[2-(3-Chloro-phenyl)-thiazole-4-carbonyl]-amino}-cyclohexyl-acetic acid], the IC50 is greater than 10 µM. With `O=C(O)CC(Cc1ccccc1)NC(=O)c1csc(-c2ccccc2)n1` (stereo not shown) [Example 134, 4-Phenyl-3-[(2-phenyl-thiazole-4-carbonyl)-amino]-butyric acid], the IC50 was 3.42 µM. Consider `O=C(O)C[C@H](NC(=O)c1csc(-c2ccccc2)n1)c1ccccc1F` [Example 35, (S)-3-(2-Fluoro-phenyl)-3-[(2-phenyl-thiazole-4-carbonyl)-amino]-propionic acid], for which the IC50 was determined as 1.48 µM. The same measure for `O=C(O)C[C@H](NC(=O)c1csc(-c2ccccc2Cl)n1)c1ccccc1F` [Example 76, (S)-3-{[2-(2-Chloro-phenyl)-thiazole-4-carbonyl]-amino}-3-(2-fluoro-phenyl)-propionic acid]: 0.658 µM; for `O=C(O)C[C@H](NC(=O)c1csc(-c2ccccc2F)n1)c1ccccc1C(F)(F)F` [Example 84, (S)-3-{[2-(2-Fluoro-phenyl)-thiazole-4-carbonyl]-amino}-3-(2-trifluoromethyl-phenyl)-propionic acid]: 1.35 µM; for `O=C(O)C[C@H](NC(=O)c1csc(-c2ccccc2)n1)c1cccc(Cl)c1` [Example 40, (S)-3-(3-Chloro-phenyl)-3-[(2-phenyl-thiazole-4-carbonyl)-amino]-propionic acid]: 0.821 µM. As to `C[C@@](CC(=O)O)(NC(=O)c1nc(-c2ccccc2)cs1)c1ccccc1` [Example 4, (S)-3-Phenyl-3-[(4-phenyl-thiazole-2-carbonyl)-amino]-butyric acid], the IC50 is greater than 10 µM. The same measure for `O=C(O)C[C@H](NC(=O)c1csc(-c2ccc(C(F)(F)F)cc2)n1)c1ccccc1F` [Example 37, (S)-3-(2-Fluoro-phenyl)-3-{[2-(4-trifluoromethyl-phenyl)-thiazole-4-carbonyl]-amino}-propionic acid]: 14.7 µM. On to `COc1cccc([C@H](CC(=O)O)NC(=O)c2csc(-c3cccc(Cl)c3Cl)n2)c1OC` [Example 64, (S)-3-{[2-(2,3-Dichloro-phenyl)-thiazole-4-carbonyl]-amino}-3-(2,3-dimethoxy-phenyl)-propionic acid], for which the IC50 turned out to be 0.154 µM. To `Cc1ccccc1[C@H](CC(=O)O)NC(=O)c1nc(-c2ccccc2)cs1` [Example 136, (S)-3-[(4-Phenyl-thiazole-2-carbonyl)-amino]-3-o-tolyl-propionic acid] belongs 0.0889 µM; to `Cc1ccccc1-c1nc(C(=O)N[C@@H](Cc2ccc(Cl)cc2)C(=O)O)cs1` [Example 72, (S)-3-(4-Chloro-phenyl)-2-[(2-o-tolyl-thiazole-4-carbonyl)-amino]-propionic acid], 16.6 µM. For `O=C(N[C@@H](Cc1ccc(Cl)cc1)C(=O)O)c1csc(-c2ccccc2)n1` [Example 58, (S)-3-(4-Chloro-phenyl)-2-[(2-phenyl-thiazole-4-carbonyl)-amino]-propionic acid], the 50% inhibitory concentration (IC50) was 22 µM. The same measure for `O=C(O)CC(Cc1ccccc1)NC(=O)c1csc(-c2cccc(Cl)c2)n1` (stereo not shown) [Example 125, 3-{[2-(3-Chloro-phenyl)-thiazole-4-carbonyl]-amino}-4-phenyl-butyric acid]: 9.06 µM; for `O=C(O)C[C@H](NC(=O)c1csc(-c2ccccc2F)n1)c1ccc(F)cc1` [Example 56, (S)-3-(4-Fluoro-phenyl)-3-{[2-(2-fluoro-phenyl)-thiazole-4-carbonyl]-amino}-propionic acid]: 1.05 µM; for `O=C(O)C[C@H](NC(=O)c1csc(-c2ccc(Cl)cc2)n1)c1ccc(Cl)cc1Cl` [Example 102, (S)-3-{[2-(4-Chloro-phenyl)-thiazole-4-carbonyl]-amino}-3-(2,4-dichloro-phenyl)-propionic acid]: 2.68 µM.
